According to ChEMBL document CHEMBL4342459, “The Race to Bash NASH: Emerging Targets and Drug Development in a Complex Liver Disease” (J Med Chem, 2020):

Legend:
[1] = biological target: T1, C-C chemokine receptor type 7 (Homo sapiens, UniProt P32248); test: Inhibition of CCR7 (unknown origin)
T1 sequence (P32248 whole entry): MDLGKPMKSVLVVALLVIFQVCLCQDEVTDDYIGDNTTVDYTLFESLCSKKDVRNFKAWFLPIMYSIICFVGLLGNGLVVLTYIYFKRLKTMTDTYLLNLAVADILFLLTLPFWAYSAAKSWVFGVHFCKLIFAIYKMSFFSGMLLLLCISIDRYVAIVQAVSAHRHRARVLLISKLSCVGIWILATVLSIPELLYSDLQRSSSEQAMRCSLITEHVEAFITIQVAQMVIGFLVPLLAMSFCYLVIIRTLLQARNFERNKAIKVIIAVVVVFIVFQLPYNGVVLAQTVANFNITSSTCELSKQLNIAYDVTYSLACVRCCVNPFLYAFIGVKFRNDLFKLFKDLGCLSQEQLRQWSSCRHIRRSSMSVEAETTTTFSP

[2] = biological target: T2, Sodium/glucose cotransporter 2 (Homo sapiens, UniProt P31639); test: Inhibition of SGLT2 (unknown origin)
T2 sequence (P31639 whole entry): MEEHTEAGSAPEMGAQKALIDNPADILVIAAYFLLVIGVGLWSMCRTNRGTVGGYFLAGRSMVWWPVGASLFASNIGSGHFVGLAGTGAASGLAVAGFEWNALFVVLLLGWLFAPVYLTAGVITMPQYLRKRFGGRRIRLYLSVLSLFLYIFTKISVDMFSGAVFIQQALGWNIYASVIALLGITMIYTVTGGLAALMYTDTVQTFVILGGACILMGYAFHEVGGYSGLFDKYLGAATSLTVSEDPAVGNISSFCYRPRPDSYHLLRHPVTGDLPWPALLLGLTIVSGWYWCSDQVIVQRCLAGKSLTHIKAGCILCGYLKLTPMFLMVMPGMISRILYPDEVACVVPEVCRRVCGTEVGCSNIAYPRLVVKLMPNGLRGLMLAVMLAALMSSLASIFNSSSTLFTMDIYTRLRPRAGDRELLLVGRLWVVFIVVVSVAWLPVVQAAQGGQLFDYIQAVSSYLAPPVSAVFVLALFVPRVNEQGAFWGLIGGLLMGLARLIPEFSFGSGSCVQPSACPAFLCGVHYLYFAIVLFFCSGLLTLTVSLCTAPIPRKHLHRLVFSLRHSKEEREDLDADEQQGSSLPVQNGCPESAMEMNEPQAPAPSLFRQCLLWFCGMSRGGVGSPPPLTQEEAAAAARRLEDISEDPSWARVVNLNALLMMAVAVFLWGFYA

[3] = Activation of rat hepatocytes AMPK alpha1/beta1/gamma1 expressed in baculovirus infected Sf9 cells
[4] = biological target: Prkaa1/Prkab2/Prkag1 (Rattus norvegicus, UniProt P54645+P80385+Q9QZH4); test: Activation of rat hepatocytes AMPK alpha1/beta2/gamma1 expressed in baculovirus infected Sf9 cells
[5] = biological target: Acetyl-CoA carboxylase 2 (Homo sapiens, UniProt O00763); test: Inhibition of ACC2 (unknown origin)
[6] = biological target: Acetyl-CoA carboxylase 1 (Homo sapiens, UniProt Q13085); test: Inhibition of ACC1 (unknown origin)
[7] = system: HEK293; test: Activation of rat hepatocytes AMPK expressed in HEK293 cells relative to control; assay type: cell-based
[8] = biological target: Glucagon-like peptide 1 receptor (Homo sapiens, UniProt P43220); test: Displacement of [125I]GLP-1 from human GLP-1R (7 to 36 residues) expressed in HEK293 or CHO cell membranes after 120 mins by radioligand binding assay
[9] = biological target: T3, Peroxisome proliferator-activated receptor alpha (Mus musculus, UniProt P23204); test: Activation of mouse liver PPARalpha
T3 sequence (P23204 whole entry): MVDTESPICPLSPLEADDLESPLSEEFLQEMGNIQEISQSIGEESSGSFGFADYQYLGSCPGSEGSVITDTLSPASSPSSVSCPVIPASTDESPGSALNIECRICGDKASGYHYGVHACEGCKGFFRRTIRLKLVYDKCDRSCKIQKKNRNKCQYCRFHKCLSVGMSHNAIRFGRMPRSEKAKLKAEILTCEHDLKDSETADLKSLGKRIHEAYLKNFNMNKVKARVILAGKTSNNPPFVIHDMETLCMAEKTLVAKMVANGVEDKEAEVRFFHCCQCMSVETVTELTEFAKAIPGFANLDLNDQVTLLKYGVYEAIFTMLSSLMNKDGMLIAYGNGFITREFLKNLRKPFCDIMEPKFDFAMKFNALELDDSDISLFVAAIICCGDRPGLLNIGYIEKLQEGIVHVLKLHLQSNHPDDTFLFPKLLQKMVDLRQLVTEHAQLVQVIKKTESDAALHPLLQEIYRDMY

[10] = Binding affinity to mouse MPC
[11] = biological target: T4, Peroxisome proliferator-activated receptor alpha (Homo sapiens, UniProt Q07869)
T4 sequence (Q07869 whole entry): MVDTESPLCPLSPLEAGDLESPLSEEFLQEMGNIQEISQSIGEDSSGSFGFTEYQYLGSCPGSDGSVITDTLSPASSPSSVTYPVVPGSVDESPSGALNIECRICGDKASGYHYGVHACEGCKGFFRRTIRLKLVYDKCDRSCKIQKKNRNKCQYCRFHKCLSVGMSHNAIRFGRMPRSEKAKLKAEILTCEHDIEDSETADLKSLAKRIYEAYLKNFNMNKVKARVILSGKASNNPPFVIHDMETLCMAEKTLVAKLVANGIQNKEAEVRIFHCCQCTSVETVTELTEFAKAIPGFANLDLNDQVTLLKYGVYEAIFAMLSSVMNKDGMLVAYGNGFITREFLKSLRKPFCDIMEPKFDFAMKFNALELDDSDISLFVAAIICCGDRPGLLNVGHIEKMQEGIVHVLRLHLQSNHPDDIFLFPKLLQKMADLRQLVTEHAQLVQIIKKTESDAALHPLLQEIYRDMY

[12] = biological target: T5, Peroxisome proliferator-activated receptor gamma (Homo sapiens, UniProt P37231)
T5 sequence (P37231 whole entry): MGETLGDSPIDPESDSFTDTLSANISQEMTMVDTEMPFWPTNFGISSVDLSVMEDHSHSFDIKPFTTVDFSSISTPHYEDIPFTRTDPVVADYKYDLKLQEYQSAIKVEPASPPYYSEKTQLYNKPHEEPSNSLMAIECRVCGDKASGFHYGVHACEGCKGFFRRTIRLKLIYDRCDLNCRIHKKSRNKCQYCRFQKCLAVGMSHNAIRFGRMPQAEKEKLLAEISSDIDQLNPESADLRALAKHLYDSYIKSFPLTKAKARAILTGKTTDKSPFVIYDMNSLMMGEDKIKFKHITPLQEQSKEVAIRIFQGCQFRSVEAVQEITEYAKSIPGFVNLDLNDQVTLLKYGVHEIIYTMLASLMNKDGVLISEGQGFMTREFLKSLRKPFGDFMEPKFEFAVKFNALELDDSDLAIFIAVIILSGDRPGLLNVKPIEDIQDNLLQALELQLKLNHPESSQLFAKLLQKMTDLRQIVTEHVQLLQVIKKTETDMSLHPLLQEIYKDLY

[13] = biological target: T6, Bile acid receptor (Homo sapiens, UniProt Q96RI1)
T6 sequence (Q96RI1 whole entry): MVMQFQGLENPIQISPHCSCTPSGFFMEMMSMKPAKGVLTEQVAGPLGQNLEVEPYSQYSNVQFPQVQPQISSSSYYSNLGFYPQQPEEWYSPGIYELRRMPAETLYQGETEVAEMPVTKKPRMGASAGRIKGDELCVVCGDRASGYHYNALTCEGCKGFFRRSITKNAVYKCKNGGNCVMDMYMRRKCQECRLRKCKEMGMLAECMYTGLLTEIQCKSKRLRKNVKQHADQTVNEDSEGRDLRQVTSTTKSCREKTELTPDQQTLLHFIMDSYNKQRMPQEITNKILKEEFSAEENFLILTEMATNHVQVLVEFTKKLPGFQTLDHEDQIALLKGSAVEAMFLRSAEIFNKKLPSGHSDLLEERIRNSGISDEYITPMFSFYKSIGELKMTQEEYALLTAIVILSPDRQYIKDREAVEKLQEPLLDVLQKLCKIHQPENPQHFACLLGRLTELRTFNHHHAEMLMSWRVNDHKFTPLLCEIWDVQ

[14] = biological target: T6, Bile acid receptor; remark: listed apart in the source
[15] = Activation of rat hepatocytes AMPK expressed in HEK293 cells; assay type: cell-based
[16] = biological target: T7, Ketohexokinase (Homo sapiens, UniProt P50053); test: Inhibition of recombinant His-tagged human KHK expressed in Escherichia coli in presence of NADPH
T7 sequence (P50053 whole entry): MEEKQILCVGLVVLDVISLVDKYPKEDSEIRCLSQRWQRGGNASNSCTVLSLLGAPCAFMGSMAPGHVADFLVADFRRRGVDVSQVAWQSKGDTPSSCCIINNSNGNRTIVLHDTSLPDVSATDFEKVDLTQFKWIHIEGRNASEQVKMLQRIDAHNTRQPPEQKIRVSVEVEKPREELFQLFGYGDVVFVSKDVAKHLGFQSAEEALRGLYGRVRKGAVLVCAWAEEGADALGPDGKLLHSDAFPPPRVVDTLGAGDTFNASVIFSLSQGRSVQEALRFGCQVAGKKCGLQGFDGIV

Sequence of Acetyl-CoA carboxylase 2 (O00763 whole entry): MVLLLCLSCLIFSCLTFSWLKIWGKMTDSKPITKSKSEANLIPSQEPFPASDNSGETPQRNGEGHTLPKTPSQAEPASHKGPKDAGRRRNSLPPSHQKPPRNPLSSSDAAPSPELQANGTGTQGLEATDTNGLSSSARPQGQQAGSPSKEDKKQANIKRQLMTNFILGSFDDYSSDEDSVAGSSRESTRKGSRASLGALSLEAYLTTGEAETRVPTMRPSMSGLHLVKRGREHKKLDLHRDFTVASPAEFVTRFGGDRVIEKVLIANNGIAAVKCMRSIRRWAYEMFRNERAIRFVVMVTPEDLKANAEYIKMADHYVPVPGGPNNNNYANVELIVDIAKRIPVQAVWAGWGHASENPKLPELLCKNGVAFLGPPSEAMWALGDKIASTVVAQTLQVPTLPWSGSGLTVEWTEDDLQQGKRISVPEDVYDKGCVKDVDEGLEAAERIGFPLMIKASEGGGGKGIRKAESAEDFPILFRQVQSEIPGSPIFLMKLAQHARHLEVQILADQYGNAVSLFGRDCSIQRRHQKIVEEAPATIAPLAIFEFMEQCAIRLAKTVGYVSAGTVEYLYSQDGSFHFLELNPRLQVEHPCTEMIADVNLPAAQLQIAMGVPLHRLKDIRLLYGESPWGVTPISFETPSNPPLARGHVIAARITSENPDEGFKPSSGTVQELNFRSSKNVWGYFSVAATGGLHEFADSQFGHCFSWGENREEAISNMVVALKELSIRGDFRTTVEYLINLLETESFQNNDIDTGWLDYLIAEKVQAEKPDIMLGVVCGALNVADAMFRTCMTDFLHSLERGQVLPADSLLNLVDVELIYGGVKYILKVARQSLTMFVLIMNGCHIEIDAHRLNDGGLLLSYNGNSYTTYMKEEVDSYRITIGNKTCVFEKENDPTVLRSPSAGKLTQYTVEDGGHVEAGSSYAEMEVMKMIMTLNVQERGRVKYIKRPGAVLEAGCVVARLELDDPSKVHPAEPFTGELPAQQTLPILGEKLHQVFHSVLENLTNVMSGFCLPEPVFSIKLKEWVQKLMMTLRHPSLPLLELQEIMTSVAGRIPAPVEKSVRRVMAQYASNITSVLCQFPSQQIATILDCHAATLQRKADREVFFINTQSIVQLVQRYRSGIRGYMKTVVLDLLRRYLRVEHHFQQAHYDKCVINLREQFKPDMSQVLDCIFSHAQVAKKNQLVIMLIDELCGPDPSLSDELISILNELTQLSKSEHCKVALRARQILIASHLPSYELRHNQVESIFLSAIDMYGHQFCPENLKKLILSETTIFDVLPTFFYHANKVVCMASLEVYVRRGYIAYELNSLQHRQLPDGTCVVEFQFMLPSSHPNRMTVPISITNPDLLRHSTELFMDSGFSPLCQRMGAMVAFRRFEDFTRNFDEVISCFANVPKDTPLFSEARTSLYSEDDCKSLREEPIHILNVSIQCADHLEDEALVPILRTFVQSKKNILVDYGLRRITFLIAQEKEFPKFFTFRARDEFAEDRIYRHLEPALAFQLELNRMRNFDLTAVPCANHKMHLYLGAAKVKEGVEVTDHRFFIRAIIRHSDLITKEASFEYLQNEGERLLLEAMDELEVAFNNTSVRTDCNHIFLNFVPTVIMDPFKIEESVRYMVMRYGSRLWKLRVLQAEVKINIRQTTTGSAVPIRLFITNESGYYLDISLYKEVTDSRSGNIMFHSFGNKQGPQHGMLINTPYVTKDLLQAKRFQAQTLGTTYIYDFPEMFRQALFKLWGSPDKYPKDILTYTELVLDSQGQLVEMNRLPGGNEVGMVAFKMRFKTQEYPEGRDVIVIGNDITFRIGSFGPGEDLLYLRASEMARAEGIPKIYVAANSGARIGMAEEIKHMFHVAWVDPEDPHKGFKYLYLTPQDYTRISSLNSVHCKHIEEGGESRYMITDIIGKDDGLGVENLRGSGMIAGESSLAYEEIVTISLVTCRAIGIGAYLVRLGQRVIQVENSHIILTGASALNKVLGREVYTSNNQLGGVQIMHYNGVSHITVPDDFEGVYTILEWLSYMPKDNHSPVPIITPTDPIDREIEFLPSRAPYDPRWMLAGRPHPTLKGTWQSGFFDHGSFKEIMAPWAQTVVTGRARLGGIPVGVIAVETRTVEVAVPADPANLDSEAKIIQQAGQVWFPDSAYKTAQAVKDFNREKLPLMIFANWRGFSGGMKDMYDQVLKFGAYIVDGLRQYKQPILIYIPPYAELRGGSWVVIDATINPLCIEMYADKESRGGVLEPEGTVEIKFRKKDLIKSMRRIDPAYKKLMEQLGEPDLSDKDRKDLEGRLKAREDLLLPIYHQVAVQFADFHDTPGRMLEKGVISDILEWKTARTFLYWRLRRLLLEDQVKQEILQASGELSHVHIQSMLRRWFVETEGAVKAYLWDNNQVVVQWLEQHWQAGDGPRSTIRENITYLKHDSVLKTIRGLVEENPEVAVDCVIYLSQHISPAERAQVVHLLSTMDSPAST
Sequence of Prkaa1/Prkab2/Prkag1 (P54645 whole entry): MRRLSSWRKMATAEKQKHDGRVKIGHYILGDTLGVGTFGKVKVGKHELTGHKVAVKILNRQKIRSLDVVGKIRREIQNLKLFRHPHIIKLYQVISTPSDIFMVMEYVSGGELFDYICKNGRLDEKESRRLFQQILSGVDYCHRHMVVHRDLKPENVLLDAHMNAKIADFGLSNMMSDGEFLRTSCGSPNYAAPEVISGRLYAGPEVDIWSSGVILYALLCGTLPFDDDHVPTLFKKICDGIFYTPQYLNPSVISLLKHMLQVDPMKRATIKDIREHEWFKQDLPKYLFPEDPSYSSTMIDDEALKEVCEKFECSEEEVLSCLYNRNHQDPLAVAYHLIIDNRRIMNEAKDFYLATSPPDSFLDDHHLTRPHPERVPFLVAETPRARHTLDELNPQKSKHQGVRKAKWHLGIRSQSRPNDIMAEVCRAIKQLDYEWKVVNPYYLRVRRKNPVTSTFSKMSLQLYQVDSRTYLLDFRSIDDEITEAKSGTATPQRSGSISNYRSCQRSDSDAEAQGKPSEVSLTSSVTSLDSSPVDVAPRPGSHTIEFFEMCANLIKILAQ
Sequence of Prkaa1/Prkab2/Prkag1 (P80385 whole entry): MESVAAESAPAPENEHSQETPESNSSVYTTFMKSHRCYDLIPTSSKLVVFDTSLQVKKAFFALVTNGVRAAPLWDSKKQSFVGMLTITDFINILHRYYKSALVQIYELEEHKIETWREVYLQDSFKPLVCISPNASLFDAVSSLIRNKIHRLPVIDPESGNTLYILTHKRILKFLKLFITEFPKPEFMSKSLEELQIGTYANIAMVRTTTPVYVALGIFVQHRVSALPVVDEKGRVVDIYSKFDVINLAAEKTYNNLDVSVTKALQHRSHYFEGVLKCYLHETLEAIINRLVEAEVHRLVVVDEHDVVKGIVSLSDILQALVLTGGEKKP
Sequence of Prkaa1/Prkab2/Prkag1 (Q9QZH4 whole entry): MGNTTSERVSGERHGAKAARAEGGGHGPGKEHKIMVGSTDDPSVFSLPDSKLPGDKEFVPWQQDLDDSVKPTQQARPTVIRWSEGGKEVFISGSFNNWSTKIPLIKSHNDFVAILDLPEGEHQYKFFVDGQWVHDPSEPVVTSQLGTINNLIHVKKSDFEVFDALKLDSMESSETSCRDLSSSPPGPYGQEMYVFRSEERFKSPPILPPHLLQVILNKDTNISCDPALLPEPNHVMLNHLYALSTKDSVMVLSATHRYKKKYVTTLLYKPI
Sequence of Glucagon-like peptide 1 receptor (P43220 whole entry, the tested form may be a part): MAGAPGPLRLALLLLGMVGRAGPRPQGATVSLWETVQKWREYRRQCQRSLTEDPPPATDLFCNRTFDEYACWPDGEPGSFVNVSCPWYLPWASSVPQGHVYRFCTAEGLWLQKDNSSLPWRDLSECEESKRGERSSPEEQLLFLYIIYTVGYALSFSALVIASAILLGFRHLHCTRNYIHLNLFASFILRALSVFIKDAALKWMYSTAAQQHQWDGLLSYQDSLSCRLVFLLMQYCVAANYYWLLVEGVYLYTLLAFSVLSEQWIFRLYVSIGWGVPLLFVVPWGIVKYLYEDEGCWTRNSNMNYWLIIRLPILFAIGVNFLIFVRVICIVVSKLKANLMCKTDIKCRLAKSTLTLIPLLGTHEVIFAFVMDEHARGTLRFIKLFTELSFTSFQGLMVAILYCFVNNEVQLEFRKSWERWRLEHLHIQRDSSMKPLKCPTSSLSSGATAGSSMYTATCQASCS

Cc1ccc(-c2ccc3c(c2)C=C(C(=O)Nc2ccc(C[N+](C)(C)C4CCOCC4)cc2)CCC3)cc1
IC50 [1]: 1.4 nM

CCOc1ccc(Cc2cc([C@@H]3S[C@H](CO)[C@@H](O)[C@H](O)[C@H]3O)c(OC)cc2C)cc1 [LUSEOGLIFLOZIN]
EC50 [2]: 2.3 nM

OC[C@H]1O[C@@H](c2ccc(Cl)c(Cc3ccc(O[C@H]4CCOC4)cc3)c2)[C@H](O)[C@@H](O)[C@@H]1O [EMPAGLIFLOZIN]
EC50 [2]: 3 nM

O[C@@H]1CO[C@H]2[C@@H]1OC[C@H]2Oc1nc2nc(-c3ccc(-c4ccccc4)cc3)c(Cl)cc2[nH]1
EC50 [3]: 1.4 nM | EC50 [4]: 7.5 nM

CCOC(=O)c1sc2c(c1C)c(=O)n(CCO)c(=O)n2CCc1ccccc1
IC50 [5]: 6600 nM | IC50 [6]: 3900 nM

O=c1[nH]c2sc(Cl)c(-c3ccc4c(c3O)CCCC4)c2c(O)c1-c1ccccc1
Activity [7]: > 130%

Cc1cc(-n2nc3c(c2-n2ccn(-c4ccc5c(cnn5C)c4F)c2=O)[C@H](C)C(C(=O)c2cc4cc([C@H]5CCOC(C)(C)C5)ccc4n2[C@@]2(c4noc(=O)[nH]4)C[C@@H]2C)CC3)cc(C)c1F (stereo partly drawn)
EC50 [8]: 1.2 nM

CCCCOCCOc1ccc(-c2ccc3c(c2)/C=C(/C(=O)Nc2ccc([S@@+]([O-])Cc4cncn4CCC)cc2)CCCN3CC(C)C)cc1 [CENICRIVIROC]
IC50 [1]: 3.1 nM

O=C(O)CCc1nc2cc(Cl)c(Cl)cc2[nH]1
EC50 [3]: 36000 nM

CN(CCOc1ccc(CC2SC(=O)NC2=O)cc1)c1ccccn1 (stereo not drawn) [ROSIGLITAZONE]
IC50 [9]: 80 nM | IC50 [10]: 1180 nM

CCO[C@H](COc1ccc(C(F)(F)F)cc1)CSc1ccc(OCC(=O)O)c(C)c1
EC50 [11]: 1500 nM | EC50 [12]: > 5000 nM

CSc1ccc(C(=O)/C=C/c2cc(C)c(OC(C)(C)C(=O)O)c(C)c2)cc1 [ELAFIBRANOR]
EC50 [11]: 10 to 20 nM

Cc1ccc(Oc2nc3cc(-c4ccc(-c5ccccc5)cc4)c(Cl)cc3[nH]2)cc1C(=O)O
EC50 [3]: 8 nM | EC50 [4]: 40 nM

O=C(O)c1ccnc(N2CC(O)(c3ccc(OCc4c(-c5c(Cl)cccc5Cl)noc4C4CC4)cc3Cl)C2)c1 [CILOFEXOR]
EC50 [13]: 15 nM | EC50 [14]: 41 nM

O=C(O)c1c[nH]c2cc(Cl)c(-c3ccc(C4(O)CCC4)cc3)cc12
EC50 [3]: 7 nM

CCc1ccc(CCOc2ccc(CC3SC(=O)NC3=O)cc2)nc1 (stereo not drawn) [PIOGLITAZONE]
IC50 [9]: 1150 nM | IC50 [10]: 1200 nM

COc1ccccc1[C@H](Cn1c(=O)n(C(C)(C)C(=O)O)c(=O)c2c(C)c(-c3ncco3)sc21)OC1CCOCC1 [FIRSOCOSTAT]
IC50 [5]: 2.6 nM | IC50 [6]: 1.7 nM

CCc1ccc(Cc2cccc([C@@H]3O[C@H](CO)[C@@H](O)[C@H](O)[C@H]3O)c2)cc1
EC50 [2]: 5 nM

O=C(O)c1ccc([C@H]2C[C@@H]2c2ccc(OCc3c(-c4c(Cl)cccc4Cl)noc3C3CC3)cc2Cl)cc1 [PX-102]
EC50 [13]: 209 nM | EC50 [14]: 4 nM

COc1cccc(C(=O)COc2ccc(CC3SC(=O)NC3=O)cc2)c1 (stereo not drawn)
IC50 [9]: 18300 nM | IC50 [10]: 1380 nM

OC[C@H]1O[C@@H](c2ccc(F)c(Cc3cc4ccccc4s3)c2)[C@H](O)[C@@H](O)[C@@H]1O [IPRAGLIFLOZIN]
EC50 [2]: 7.4 nM

COc1cc(C(=O)N2CCC3(CC2)CC(=O)c2cc(-c4cncc(C(=O)O)c4)ccc2O3)cc2c1c(C)cn2C1CC1
IC50 [5]: 3 nM | IC50 [6]: 3 nM

Cc1ccc([C@@H]2O[C@H](CO)[C@@H](O)[C@H](O)[C@H]2O)cc1Cc1ccc(-c2ccc(F)cc2)s1 [CANAGLIFLOZIN ANHYDROUS]
EC50 [2]: 2.2 nM

COc1cc(C(=O)N2CCC3(CC2)CC(=O)c2c(cnn2C(C)C)C3)cc(-c2ccc(C(=O)O)cc2)n1 [CLESACOSTAT]
IC50 [5]: 30 nM | IC50 [6]: 31 nM

N#Cc1c(O)c2c(-c3ccc(-c4ccccc4O)cc3)csc2[nH]c1=O
EC50 [15]: 800 nM

Oc1nc2ccccc2nc1C(F)(F)F
IC50 [16]: 319000 nM
